From US20090068290A1, “BIFEPRUNOX DOSES FOR TREATING SCHIZOPHRENIA” (priority 2006, published 2009)

Assays:
CYP2C9, CYP3A4, CYP2D6 = test: Metabolism and drug interactions of bifeprunox
Text: The objective of this study is to assess the pharmacokinetics (PK) of bifeprunox. The PK of bifeprunox in healthy subjects were investigated based on a pooled analysis of PK parameters from 21 clinical pharmacology studies. The pooled analysis included PK profiles after single and multiple doses to 132 and 399 subjects, respectively, and explored the potential effects of age, gender, body weight, and race. In addition, PK in patients with schizophrenia were investigated using a population PK approach based on samples from 376 patients in phase II studies and 434 patients in phase III studies.

[1] = tested on: patients with chronic schizophrenia; test: BPRS total and psychosis cluster scores, Clinical Study Four; assay type: in vivo, human; details: FAS, LOCF, ANCOVA
Method: (§1) METHODOLOGY: This study was a multinational, multicenter, randomized, double-blind, parallel-group, placebo-controlled, fixed-dose study. The study consisted of a 3- to 6-day antipsychotic-free run-in period, after which patients were randomised to 6 months of double-blind treatment with fixed doses of bifeprunox (20 mg/day (BX20) or 30 mg/day (BX30)) or placebo (PBO). Patients allocated to the BX groups were up-titrated from 0.25 mg/day over 7 days (BX20) or 8 days (BX30), and then continued on these doses for the remainder of the study. […] At predetermined time points, blood samples were obtained for drug concentration analysis of BX and its major metabolites (3′- and 4′-sulfate conjugates of BX), and pharmaco-economic assessments were performed.

[2] = tested on: patients with chronic schizophrenia; test: PANSS total score, Clinical Study Four; assay type: in vivo, human; details: FAS, ANCOVA; for Adjusted Mean Change from Baseline in PANSS Total Score, Difference to PBO Mean: Week 6 (day 42)
Method: as §1

`O=c1[nH]c2cccc(N3CCN(Cc4cccc(-c5ccccc5)c4)CC3)c2o1` [Bifeprunox, 7-[4-([1,1′-biphenyl]-3-ylmethyl)-1-piperazinyl]-2(3H)-benzoxazolone] was tested, and the metabolizing enzymes (CYP2C9, CYP3A4, CYP2D6; human, in vivo) was “metabolized by CYP2C9, CYP3A4 and to a lesser extent, CYP2D6”, the interaction potential (CYP2C9, CYP3A4, CYP2D6; in vivo) was “low interaction potential” and the “plasma levels in CYP2C9 slow/intermediate metabolizers” value (CYP2C9, CYP3A4, CYP2D6; vs subjects with normal enzyme activity) was “higher plasma levels”. For the same molecule, the “bifeprunox exposure on co-administration” value (CYP2C9, CYP3A4, CYP2D6; with carbamazepine (CYP3A4 inducer)) was “reduced”, the “bifeprunox exposure on co-administration” value (CYP2C9, CYP3A4, CYP2D6; with fluconazole (CYP2C9 inhibitor)) was “increased” and the “BPRS psychosis cluster, Adjusted Mean Change from Baseline (LS mean)” value ([1]; Month 6, listed as BX20) was −0.1. The “BPRS total, Adjusted Mean Change from Baseline (LS mean)” value (shortened to “BPRS total, Adjusted Mean Change”) ([1]; Month 6, listed as BX20) was −0.1, the “BPRS psychosis cluster, Adjusted Mean Change from Baseline (LS mean)” value ([1]; Month 6, listed as BX30) was −0.2 and the “BPRS total, Adjusted Mean Change” value ([1]; Month 6, listed as BX30) was 0.5. For the same molecule, the “BPRS psychosis cluster, Adjusted Mean Change from Baseline (LS mean)” value ([1]; Week 6, listed as BX20) was −0.8, the “BPRS total, Adjusted Mean Change” value ([1]; Week 6, listed as BX20) was −2.1 and the “BPRS psychosis cluster, Adjusted Mean Change from Baseline (LS mean)” value ([1]; Week 6, listed as BX30) was −0.7. The “BPRS total, Adjusted Mean Change” value ([1]; Week 6, listed as BX30) was −1.3, the “Adjusted Mean Change from Baseline in PANSS Total Score, Difference to PBO Mean” value ([2]; BX20 (bifeprunox 20 mg/day), LOCF) was −5.07 and the “Adjusted Mean Change from Baseline in PANSS Total Score, Difference to PBO Mean” value ([2]; BX30 (bifeprunox 30 mg/day), LOCF) was −3.71. The “Adjusted Mean Change from Baseline in PANSS Total Score, Least Squares Estimates Mean” value ([2]; Day 7, LOCF, listed as BX20) was −1.89, the “Change from Baseline in PANSS Total Score, Difference to PBO Mean” value ([2]; Day 7, LOCF, listed as BX20) was −1.30 and the “Adjusted Mean Change from Baseline in PANSS Total Score, Least Squares Estimates Mean” value ([2]; Day 7, LOCF, listed as BX30) was −0.73. For the same molecule, the “Change from Baseline in PANSS Total Score, Difference to PBO Mean” value ([2]; Day 7, LOCF, listed as BX30) was −0.14, the “Adjusted Mean Change from Baseline in PANSS Total Score, Least Squares Estimates Mean” value ([2]; Day 7, OC, listed as BX20) was −1.89 and the “Change from Baseline in PANSS Total Score, Difference to PBO Mean” value ([2]; Day 7, OC, listed as BX20) was −1.30. For the same molecule, the “Adjusted Mean Change from Baseline in PANSS Total Score, Least Squares Estimates Mean” value ([2]; Day 7, OC, listed as BX30) was −0.73, the “Change from Baseline in PANSS Total Score, Difference to PBO Mean” value ([2]; Day 7, OC, listed as BX30) was −0.14 and the “Adjusted Mean Change from Baseline in PANSS Total Score, Least Squares Estimates Mean” value ([2]; Day 7, POCF, listed as BX20) was −2.81. The “Change from Baseline in PANSS Total Score, Difference to PBO Mean” value ([2]; Day 7, POCF, listed as BX20) was −1.33, the “Adjusted Mean Change from Baseline in PANSS Total Score, Least Squares Estimates Mean” value ([2]; Day 7, POCF, listed as BX30) was −2.23 and the “Change from Baseline in PANSS Total Score, Difference to PBO Mean” value ([2]; Day 7, POCF, listed as BX30) was −0.76. For the same molecule, the “Adjusted Mean Change from Baseline in PANSS Total Score, Least Squares Estimates Mean” value ([2]; Day 14, LOCF, listed as BX20) was −3.03, the “Change from Baseline in PANSS Total Score, Difference to PBO Mean” value ([2]; Day 14, LOCF, listed as BX20) was −2.38 and the “Adjusted Mean Change from Baseline in PANSS Total Score, Least Squares Estimates Mean” value ([2]; Day 14, LOCF, listed as BX30) was −1.45. The “Change from Baseline in PANSS Total Score, Difference to PBO Mean” value ([2]; Day 14, LOCF, listed as BX30) was −0.79, the “Adjusted Mean Change from Baseline in PANSS Total Score, Least Squares Estimates Mean” value ([2]; Day 14, OC, listed as BX20) was −4.77 and the “Change from Baseline in PANSS Total Score, Difference to PBO Mean” value ([2]; Day 14, OC, listed as BX20) was −2.39. For the same molecule, the “Adjusted Mean Change from Baseline in PANSS Total Score, Least Squares Estimates Mean” value ([2]; Day 14, OC, listed as BX30) was −4.43, the “Change from Baseline in PANSS Total Score, Difference to PBO Mean” value ([2]; Day 14, OC, listed as BX30) was −2.05 and the “Adjusted Mean Change from Baseline in PANSS Total Score, Least Squares Estimates Mean” value ([2]; Day 14, POCF, listed as BX20) was −5.48. The “Change from Baseline in PANSS Total Score, Difference to PBO Mean” value ([2]; Day 14, POCF, listed as BX20) was −2.61, the “Adjusted Mean Change from Baseline in PANSS Total Score, Least Squares Estimates Mean” value ([2]; Day 14, POCF, listed as BX30) was −4.65 and the “Change from Baseline in PANSS Total Score, Difference to PBO Mean” value ([2]; Day 14, POCF, listed as BX30) was −1.78. For the same molecule, the “Adjusted Mean Change from Baseline in PANSS Total Score, Least Squares Estimates Mean” value ([2]; Day 28, LOCF, listed as BX20) was “−.327”, the “Change from Baseline in PANSS Total Score, Difference to PBO Mean” value ([2]; Day 28, LOCF, listed as BX20) was −3.34 and the “Adjusted Mean Change from Baseline in PANSS Total Score, Least Squares Estimates Mean” value ([2]; Day 28, LOCF, listed as BX30) was −2.13. For the same molecule, the “Change from Baseline in PANSS Total Score, Difference to PBO Mean” value ([2]; Day 28, LOCF, listed as BX30) was −2.20, the “Adjusted Mean Change from Baseline in PANSS Total Score, Least Squares Estimates Mean” value ([2]; Day 28, OC, listed as BX20) was −7.61 and the “Change from Baseline in PANSS Total Score, Difference to PBO Mean” value ([2]; Day 28, OC, listed as BX20) was −4.09. For the same molecule, the “Adjusted Mean Change from Baseline in PANSS Total Score, Least Squares Estimates Mean” value ([2]; Day 28, OC, listed as BX30) was −7.14, the “Change from Baseline in PANSS Total Score, Difference to PBO Mean” value ([2]; Day 28, OC, listed as BX30) was −3.63 and the “Adjusted Mean Change from Baseline in PANSS Total Score, Least Squares Estimates Mean” value ([2]; Day 28, POCF, listed as BX20) was −7.74. For the same molecule, the “Change from Baseline in PANSS Total Score, Difference to PBO Mean” value ([2]; Day 28, POCF, listed as BX20) was −3.63, the “Adjusted Mean Change from Baseline in PANSS Total Score, Least Squares Estimates Mean” value ([2]; Day 28, POCF, listed as BX30) was −6.85 and the “Change from Baseline in PANSS Total Score, Difference to PBO Mean” value ([2]; Day 28, POCF, listed as BX30) was −2.74. For the same molecule, the “Adjusted Mean Change from Baseline in PANSS Total Score, Least Squares Estimates Mean” value ([2]; Day 42, LOCF, listed as BX20) was −4.01, the “Change from Baseline in PANSS Total Score, Difference to PBO Mean” value ([2]; Day 42, LOCF, listed as BX20) was −5.07 and the “Adjusted Mean Change from Baseline in PANSS Total Score, Least Squares Estimates Mean” value ([2]; Day 42, LOCF, listed as BX30) was −2.65. The “Change from Baseline in PANSS Total Score, Difference to PBO Mean” value ([2]; Day 42, LOCF, listed as BX30) was −3.71, the “Adjusted Mean Change from Baseline in PANSS Total Score, Least Squares Estimates Mean” value ([2]; Day 42, OC, listed as BX20) was −12.40 and the “Change from Baseline in PANSS Total Score, Difference to PBO Mean” value ([2]; Day 42, OC, listed as BX20) was −6.14. For the same molecule, the “Adjusted Mean Change from Baseline in PANSS Total Score, Least Squares Estimates Mean” value ([2]; Day 42, OC, listed as BX30) was −11.23, the “Change from Baseline in PANSS Total Score, Difference to PBO Mean” value ([2]; Day 42, OC, listed as BX30) was −4.97 and the “Adjusted Mean Change from Baseline in PANSS Total Score, Least Squares Estimates Mean” value ([2]; Day 42, POCF, listed as BX20) was −9.40. For the same molecule, the “Change from Baseline in PANSS Total Score, Difference to PBO Mean” value ([2]; Day 42, POCF, listed as BX20) was −4.32, the “Adjusted Mean Change from Baseline in PANSS Total Score, Least Squares Estimates Mean” value ([2]; Day 42, POCF, listed as BX30) was −8.12 and the “Change from Baseline in PANSS Total Score, Difference to PBO Mean” value ([2]; Day 42, POCF, listed as BX30) was −3.05. For the same molecule, the “Adjusted Mean Change from Baseline in PANSS Total Score, Least Squares Estimates Mean” value ([2]; Day 63, LOCF, listed as BX20) was −3.22, the “Change from Baseline in PANSS Total Score, Difference to PBO Mean” value ([2]; Day 63, LOCF, listed as BX20) was −5.47 and the “Adjusted Mean Change from Baseline in PANSS Total Score, Least Squares Estimates Mean” value ([2]; Day 63, LOCF, listed as BX30) was −2.44.
